From patent US20080194611A1, “Modulation of Cell Barrier Dysfunction” (priority 2005, published 2008)

How the values were obtained:
[1] = test system: PA-I lectin/adhesin expression in P. aeruginosa 27853/PLL-EGFP
[2] = test system: P. aeruginosa whole cells and membrane fractions; assay: ELISA / immunofluorescence binding of cytokines to P. aeruginosa cells and membrane fractions; set-up: species or system Pseudomonas aeruginosa; conditions: for binding to P. aeruginosa membrane fractions: PAO1 membranes, ELISA
Description: IFN-γ direct binding to a protein on the surface of P. aeruginosa, in the course of virulence activation, was also investigated. ELISA binding assays were performed by first coating microtiter plates with P. aeruginosa (strain PAO1), then adding recombinant human IFN-γ (rH IFN-γ), followed by biotin-labeled anti-IFN-γ antibody. […] In order to localize the binding site of IFN-γ to P. aeruginosa (PAO1), equal protein concentrations of membrane and cytosol fractions of P. aeruginosa were prepared and coated onto ELISA microtiter plates.

[3] = test system: P. aeruginosa; format: cell-based, Pseudomonas aeruginosa
[4] = test system: pyocyanin (PCN) production in P. aeruginosa; format: cell-based, Pseudomonas aeruginosa
[5] = test system: PA-I lectin/adhesin expression in P. aeruginosa PA27853 and PAO1
[6] = test system: S1P3 receptor; assay: Tyrosine phosphorylation (transactivation) of the S1P3 receptor; format: cell-based, Human; conditions: pre-treatment
[7] = test system: Human pulmonary microvascular endothelial cell; format: cell-based; conditions: for effect of agonist alone on endothelial cell barrier function (TER): HPMVEC
[8] = cited from earlier work
[9] = in vivo; cited from earlier work
[10] = cited from earlier work; remark: listed apart in the source
[11] = test system: MDCK cells; format: cell-based
[12] = test system: P. aeruginosa biofilm; format: cell-based, Pseudomonas aeruginosa
[13] = biological target: T1, outer membrane protein OprF (Pseudomonas aeruginosa, UniProt P13794); assay: Binding of IFN-γ to purified OprF; conditions: dose-dependent
T1 sequence (P13794 25-350): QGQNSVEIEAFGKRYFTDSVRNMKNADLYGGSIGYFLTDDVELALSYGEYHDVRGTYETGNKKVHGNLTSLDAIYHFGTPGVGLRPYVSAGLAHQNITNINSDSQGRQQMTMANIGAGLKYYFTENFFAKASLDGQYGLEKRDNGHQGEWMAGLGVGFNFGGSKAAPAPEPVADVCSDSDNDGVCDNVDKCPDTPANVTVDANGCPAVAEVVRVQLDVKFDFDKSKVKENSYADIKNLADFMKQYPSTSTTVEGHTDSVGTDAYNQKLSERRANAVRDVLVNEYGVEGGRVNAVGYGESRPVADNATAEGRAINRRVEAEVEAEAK

[14] = test system: quorum sensing signaling system of P. aeruginosa PAO1; assay: Quorum sensing activation in PAO1 (rhlI Northern blot, C4-HSL in supernatants); format: cell-based, Pseudomonas aeruginosa
[15] = test system: Caco-2 cell monolayers; assay: Barrier dysregulation of Caco-2 monolayers by PA27853 in the presence of IFN-γ; format: cell-based, Human; conditions: after five hours of incubation
Description: In addition, strains were exposed to apical media from Caco-2 cells basolaterally exposed to single and combinations of the various epithelial-derived cytokines. […] Media from Caco-2 cells exposed to various combinations of these cytokines had no effect on PA-I expression. […] Using both ELISA, immunofluorescence microscopy, and flow cytometry, the binding characteristics of IFNγ were determined for both whole bacteria and membrane fractions of P. aeruginosa. […] These effects were also observed with strain PAO1. […] It has been difficult to immunoprecipitate a significant quantity of this protein from PA27853, but it has been determined that this protein can also be immunoprecipitated from E. coli. Next, IFN-γ binding specificity, to whole bacterial cells, was determined, using reiterative binding studies in the presence of various gram-negative bacterial strains, including P. aeruginosa. […] Finally, in order to determine if PA-I was functionally expressed in […] in the presence IFN-γ, PA27853 was inoculated onto Caco-2 cell monolayers in the presence of IFN-γ and the effect on barrier dysregulating dynamics of PA27853 against this cell line were assessed to determine if IFN-γ shifted the dynamics. IFN-γ enhanced the barrier dysregulating effect of PA27853 against the intestinal epithelium after five hours of incubation by about 20%. […]

Compound: OC[C@H]1O[C@@H](n2cnc3c(O)ncnc32)[C@H](O)[C@@H]1O [inosine]
- change in PA-I expression over time, magnitude versus adenosine [1]: effect of inosine greater
- concentration inducing PA-I expression relative to adenosine [1]: 10 fold less than adenosine
- onset of PA-I expression versus adenosine [1]: at an earlier time point and at lower cell densities (OD) compared to adenosine

Compound: IL-4: human cytokine
- binding to P. aeruginosa membrane fractions [2]: No binding was observed

Compound: CCCC(=O)N[C@H]1CCOC1=O [C4-HSL, C4-homoserine lactone]
- effect on bacterial growth [3]: Neither compound had an effect on bacterial growth
- PCN production in seven additional mvfR mutants [4]: none of these mutants produced PCN
- PCN production in ΔGacA and ΔMvfR [4]: unable to restore PCN production
- PCN production in ΔGacA/gacA [4]: decreased, albeit minimally
- PCN production in ΔMvfR/mvfR [4]: further increased the already elevated PCN production
- PCN production versus cell density [4]: shift in the production of PCN at lower cell densities
- PCN response of MvfR mutant 121-332 [4]: did not respond to U-50,488 or C4-HSL
- PCN response of MvfR mutants 1-292, 1-291, 1-283 [4]: did not respond to U-50,488 and C4-HSL
- PCN response of MvfR mutants 1-299 and 1-293 [4]: responded to U-50,488 and C4-HSL with enhanced PCN production
- dynamic tracking of PCN production in ΔMvfR/mvfR [4]: demonstrated a shift in PCN production at lower cell densities
- dynamics of PCN production in ΔGacA/gacA [4]: had no effect on the dynamics of PCN production
- PA-I expression [5]: induced PA-I expression
- increase in PA-I expression [5]: ~16 fold

Compound: TGF-β
- binding to P. aeruginosa membrane fractions [2]: No binding was observed

Compound: Nc1ncnc2c1ncn2[C@@H]1O[C@H](COP(=O)(O)OP(=O)(O)OP(=O)(O)O)[C@@H](O)[C@H]1O [ATP]
- PA-I expression [1]: no evident inducing effect

Compound: C[C@@H](O)C(=O)O [D-lactate]
- PA-I promoter activity (fluorescence) [1]: had no effect on PA-I promoter activity

Compound: C[C@H](O)C(=O)O [L-lactate]
- PA-I promoter activity (fluorescence) [1]: had no effect on PA-I promoter activity

Compound: CC(=O)N[C@H]1C(O)O[C@H](CO)[C@H](O)[C@@H]1O (stereo partly drawn) [GalNac, N-acetylgalactoside]
- PA-I mRNA increase on dense adherence to Caco-2 cells ([5]; Caco-2): nearly completely abolished
- PA-I mRNA induced by Caco-2 cell membrane fractions ([5]; Caco-2): attenuated

Compound: C=CCN1CC[C@]23c4c5ccc(O)c4O[C@H]2C(=O)CC[C@@]3(O)[C@H]1C5 [naloxone]
- effect on morphine- and DAMGO-induced S1P3 receptor transactivation [6]: blocked the effects of morphine and DAMGO
- effect on MS- and DAMGO-induced endothelial cell barrier disruption [7]: blocked
- barrier protection with thrombin and LPS challenge ([7]; 0.1 μM): did not display the same endothelial cell barrier-protective effects as MNTX
- effect on morphine-induced PA-I lectin/adhesin expression [1]: significantly attenuated
- lipid solubility / polarity [8]: fairly lipid-soluble
- crossing of the blood-brain barrier [9]: crosses the blood-brain barrier easily

Compound: C[C@H]1CN(C[C@H](Cc2ccccc2)C(=O)NCC(=O)O)CCC1(C)c1cccc(O)c1 (single isomer, unassigned; (+)) [formula (II), (+)-Z-NHCH2 C(O)OH]
- solubility in water [10]: low solubility in water except at low or high pH conditions

Compound: IL-10: human cytokine
- binding to P. aeruginosa membrane fractions [2]: No binding was observed

Compound: C[C@@H](NC(=O)[C@@H](N)Cc1ccc(O)cc1)C(=O)NCC(=O)N(C)[C@@H](Cc1ccccc1)C(=O)NCCO [DAMGO, [D-Ala^2, N-MePhe^4, Gly^5-ol]]
- effect of agonist alone on endothelial cell barrier function (TER) [7]: induced endothelial cell barrier disruption in a dose-dependent manner

Compound: IL-6: human cytokine
- PA-I expression, compound alone in media [5]: none of the other compounds alone had any effect

Compound: COC(=O)c1ccccc1N [MA, methyl anthranilate]
- effect on U-50,488-enhanced PCN production [4]: inhibited the ability of U-50,488 to enhance PCN production

Compound: C=CCN1C[C@H](C)N([C@H](c2ccc(C(=O)N(CC)CC)cc2)c2cccc(O)c2)C[C@H]1C [BW373U86]
- additional TEER decrease [11]: ~25%
- PA-I expression judged by fluorescence of the GFP reporter strain [1]: greatest effect on PA-I expression
- biofilm production [12]: ~180 % of PA27853 induction
- PA-I protein expression [5]: induced a response equal to C4-HSL
- response to express PA-I [5]: induce a robust response

Compound: Oc1ccc2c3c1O[C@H]1c4[nH]c5c(c4C[C@@]4(O)[C@@H](C2)N(CC2CC2)CC[C@]314)C[C@@]1(O)[C@H]2Cc3ccc(O)c4c3[C@@]1(CCN2CC1CC1)[C@H]5O4 [NOR, nor-binaltorphimine]
- effect on U-50,488-enhanced PCN production [4]: attenuates enhanced PCN production
- dose that completely inhibits U-50,488-enhanced PCN production ([4]; PAO1): 200 µM

Compound: IFN-γ: human recombinant interferon gamma
- binding to whole bacterial cells ([2]; PA27853): high binding affinity
- ELISA binding to whole fixed cells ([2]; PAO1): avidly bound to whole fixed cells of P. aeruginosa in a dose-dependent manner
- bacterial cells that bound IFN-γ (immunofluorescent imaging) ([2]; PAO1): 73%±3.2%
- binding to P. aeruginosa membrane fractions [2]: preferentially bound to membrane fractions
- binding to purified OprF [13]: directly binds
- C4-HSL synthesis ([14]; 100 ng/ml IFN-γ): increased
- rhlI gene transcription ([14]; Northern blot): induced rhl1 transcription
- pyocyanin production [4]: increased pyocyanin production
- PA-I expression (fluorescence) [1]: significant increase in PA-1 expression
- enhancement of barrier dysregulating effect of PA27853 [15]: about 20%
- PA-I expression [5]: induced PA-I expression
- PA-I expression, compound alone in media [5]: induced a direct effect on PA-I expression
- PA-I mRNA and protein [5]: increased
- PA-I protein expression, dose dependence [5]: dose dependent, with the greatest increase seen with 100 ng/ml
- lecA (PA-I) mRNA by Northern blot [5]: induced lecA mRNA
- response to express PA-I [5]: induce a robust response

Compound: EGF: human cytokine tested for membrane binding
- binding to P. aeruginosa membrane fractions [2]: No binding was observed

Compound: Nc1ncnc2c1ncn2[C@@H]1O[C@H](CO)[C@@H](O)[C@H]1O [adenosine]
- PA-I expression [1]: increased
- PA-I promoter activity (fluorescence) [1]: enhanced fluorescence
- exposure time before PA-I promoter activity was observed [1]: 6 h
- PA-I expression, compound alone in media [5]: none of the other compounds alone had any effect

Compound: Nc1ncnc2c1ncn2[C@@H]1O[C@H](COP(=O)(O)OP(=O)(O)O)[C@@H](O)[C@H]1O [ADP]
- PA-I expression [1]: no evident inducing effect

Compound: Thrombin
- effect of agonist alone on endothelial cell barrier function (TER) [7]: induced a rapid transient decrease in endothelial cell barrier function

Compound: adenosine deaminase
- PA-I expression after adenosine depletion of HIF-1-α-activated Caco-2 media ([1]; Caco-2): even greater increase in PA-I expression

Compound: IL-8: human cytokine
- PA-I expression, compound alone in media [5]: none of the other compounds alone had any effect

Compound: dynorphin
- PCN production [4]: enhanced PCN production in a dose-dependent manner

Compound: Nc1ncnc2c1ncn2[C@@H]1O[C@H](COP(=O)(O)O)[C@@H](O)[C@H]1O [AMP]
- PA-I expression [1]: no evident inducing effect

Compound: TNF-α
- binding to P. aeruginosa membrane fractions [2]: No binding was observed
- PA-I expression, compound alone in media [5]: none of the other compounds alone had any effect

Compound: CC(C)(C)n1nc(-c2ccc(Cl)cc2)c2c(N)ncnc21 [PP2]
- effect on S1P-mediated endothelial cell barrier enhancement ([7]; Src family kinase inhibition): did not affect S1P-mediated endothelial cell barrier enhancement
- effect on agonist-induced barrier disruption ([7]; Src family kinase inhibition): blocked agonist-induced barrier disruption
